How the values were obtained:
[1] = test system: corn variety Silver Queen; experiment: Foliar sprays on corn variety Silver Queen (crop damage)
Description: (§1) In all examples, deionized ultra-pure water was used in preparing solutions. Spray solutions were used as soon as possible after mixing.
(§2) In all herbicide applications, plants were sprayed with a sufficient volume to insure good coverage, to the point of runoff of the spray solution. […] For all treatments containing both an herbicide and a salicylate or SAR inducer, these materials were mixed and applied in a single spray solution (commonly known as a tank mix). After spraying, plants were moved to the greenhouse and arranged in randomized complete blocks. Plants were evaluated for herbicidal effects (phytotoxicity) after spraying by assessing damage according to percent leaf area affected. All the data were subject to an analysis of variance, and the mean separations were determined with Duncan's multiple range test at α=0.05.
Atrazine is commonly used against weeds in corn and small grain crops.

[2] = test system: Xanthi-nc tobacco; experiment: Herbicidal activity on Xanthi-nc tobacco at three different light levels; type: in vivo, Nicotiana tabacum (tobacco); details: for Phytotoxicity at 5 days: percent leaf area affected / Phytotoxicity at 9 days: percent leaf area affected / Phytotoxicity at 13 days: percent leaf area affected: atrazine (Aatrex Nine-O) 250 ppm, NaSA 800 ppm
Description: as §1, §2

[3] = test system: Xanthi-nc tobacco; experiment: Herbicidal activity (phytotoxicity, percent leaf area affected) of foliar sprays on Xanthi-nc tobacco; type: in vivo, Nicotiana tabacum (tobacco)
Description: as §1, §2

[4] = test system: Xanthi-nc tobacco; experiment: Herbicidal activity on Xanthi-nc tobacco at three different temperatures; type: in vivo, Nicotiana tabacum (tobacco); details: for Phytotoxicity at 3 days: percent leaf area affected / Phytotoxicity at 5 days: percent leaf area affected / Phytotoxicity at 7 days: percent leaf area affected / Phytotoxicity at 10 days: percent leaf area affected: atrazine (Aatrex Nine-O) 250 ppm, NaSA 800 ppm
Description: as §1, §2

[5] = test system: velvetleaf; experiment: Herbicidal activity (phytotoxicity, percent leaf area affected) of foliar sprays on velvetleaf; type: in vivo, Abutilon theophrasti (velvetleaf); details: for Phytotoxicity at 3 days: percent leaf area affected / Phytotoxicity at 5 days: percent leaf area affected / Phytotoxicity at 7 days: percent leaf area affected: alone or + NaSA 800 ppm
Description: as §1, §2

[6] = illumination 9.8 μmoles·m^−2·s^−1
[7] = illumination 31.3 μmoles·m^−2·s^−1
[8] = atrazine 100 ppm, alone or + NaSA 1600 ppm
[9] = atrazine 250 ppm, alone or + NaSA 1600 ppm
[10] = atrazine 500 ppm, alone or + NaSA 1600 ppm
[11] = atrazine (Aatrex Nine-O) 50 ppm
[12] = atrazine (Aatrex Nine-O) 100 ppm
[13] = atrazine (Aatrex Nine-O) 250 ppm

In the case of CCNc1nc(Cl)nc(NC(C)C)n1 [Atrazine, 6-chloro-N-ethyl-N′(1-methylethyl)-1,3,5-triazine-2,4-diamine], the “Percent leaf area affected at 3 days” value ([1]; atrazine (Aatrex Nine-O) 100 ppm, alone or + NaSA 800 ppm) is reported as 0 A Percent, the “Percent leaf area affected at 3 days” value ([1]; atrazine (Aatrex Nine-O) 500 ppm, alone or + NaSA 800 ppm) is reported as 0 A Percent and the “Percent leaf area affected at 3 days” value ([1]; atrazine (Aatrex Nine-O) 1000 ppm, alone or + NaSA 800 ppm) is reported as 0 A Percent. The “Phytotoxicity at 5 days: percent leaf area affected” value ([2]; illumination 0 (Dark)) was 0.6 AB percent, the “Phytotoxicity at 5 days: percent leaf area affected” value [2, 6] was 0 A percent and the “Phytotoxicity at 5 days: percent leaf area affected” value [2, 7] was 1.9 AB percent. The “Phytotoxicity at 9 days: percent leaf area affected” value ([2]; illumination 0 (Dark)) was 0.6 A percent, the “Phytotoxicity at 9 days: percent leaf area affected” value [2, 6] was 5.3 AB percent and the “Phytotoxicity at 9 days: percent leaf area affected” value [2, 7] was 67.2 B percent. For the same molecule, the “Phytotoxicity at 13 days: percent leaf area affected” value ([2]; illumination 0 (Dark), crop oil control 35.9) was 28.1 A percent, the “Phytotoxicity at 13 days: percent leaf area affected” value [2, 6] was 76.5 B percent and the “Phytotoxicity at 13 days: percent leaf area affected” value [2, 7] was 100%. For the same molecule, the “Phytotoxicity at 2 days: percent leaf area affected” value ([3]; 2 days, atrazine (Aatrex Nine-O) 100 ppm, NaSA 800 ppm, acibenzolar-S-methyl 187 ppm, alone or tank-mixed as labelled) was 1 A percent, the “Phytotoxicity at 3 days: percent leaf area affected” value ([3]; atrazine (Aatrex Nine-O) 100 ppm, NaSA 800 ppm, acibenzolar-S-methyl 187 ppm, alone or tank-mixed as labelled) was 17 B percent and the “Phytotoxicity at 7 days: percent leaf area affected” value ([3]; 7 days, atrazine (Aatrex Nine-O) 100 ppm, NaSA 800 ppm, acibenzolar-S-methyl 187 ppm, alone or tank-mixed as labelled) was 93.9 B percent. The “Phytotoxicity at 3 days: percent leaf area affected” value [3, 8] was 1.5 A percent, the “Phytotoxicity at 6 days: percent leaf area affected” value [3, 8] was 66.2 C percent and the “Phytotoxicity at 3 days: percent leaf area affected” value [3, 9] was 4.3 AB percent. The “Phytotoxicity at 6 days: percent leaf area affected” value [3, 9] was 77.5 D percent, the “Phytotoxicity at 3 days: percent leaf area affected” value [3, 10] was 9.5 B percent and the “Phytotoxicity at 6 days: percent leaf area affected” value [3, 10] was 82.5 DE percent. For the same molecule, the “Phytotoxicity at 3 days: percent leaf area affected” value ([4]; 15 C.) was 0 A percent, the “Phytotoxicity at 3 days: percent leaf area affected” value ([4]; 25 C.) was 0 A percent and the “Phytotoxicity at 3 days: percent leaf area affected” value ([4]; 35 C.) was 11.0 AB percent. The “Phytotoxicity at 5 days: percent leaf area affected” value ([4]; 15 C.) was 0 A percent, the “Phytotoxicity at 5 days: percent leaf area affected” value ([4]; 25 C.) was 0.6 A percent and the “Phytotoxicity at 5 days: percent leaf area affected” value ([4]; 35 C.) was 73.4 C percent. The “Phytotoxicity at 7 days: percent leaf area affected” value ([4]; 15 C.) was 5.9 B percent, the “Phytotoxicity at 7 days: percent leaf area affected” value ([4]; 25 C.) was 25 C percent and the “Phytotoxicity at 7 days: percent leaf area affected” value ([4]; 35 C.) was 97.8 C percent. The “Phytotoxicity at 10 days: percent leaf area affected” value ([4]; 15 C.) was 39.1 B percent, the “Phytotoxicity at 10 days: percent leaf area affected” value ([4]; 25 C.) was 84.4 B percent and the “Phytotoxicity at 10 days: percent leaf area affected” value ([4]; 35 C.) was 100 C percent. The “Phytotoxicity at 3 days: percent leaf area affected” value [5, 11] was 17.5 B percent, the “Phytotoxicity at 5 days: percent leaf area affected” value [5, 11] was 20 B percent and the “Phytotoxicity at 7 days: percent leaf area affected” value [5, 11] was 25 B percent. For the same molecule, the “Phytotoxicity at 3 days: percent leaf area affected” value [5, 12] was 35 C percent, the “Phytotoxicity at 5 days: percent leaf area affected” value [5, 12] was 50 D percent and the “Phytotoxicity at 7 days: percent leaf area affected” value [5, 12] was 45 C percent. The “Phytotoxicity at 3 days: percent leaf area affected” value [5, 13] was 80 E percent, the “Phytotoxicity at 5 days: percent leaf area affected” value [5, 13] was 97.5 EF percent and the “Phytotoxicity at 7 days: percent leaf area affected” value [5, 13] was 95 D percent.

With O=C([O-])c1ccccc1O.[Na+] [NaSA, sodium salicylate] the “Percent leaf area affected at 3 days” value ([1]; NaSA 800 ppm alone) was 0 A Percent, the “Effect of added salicylate on atrazine herbicidal activity (in words)” value (shortened to “Effect of added salicylate”) ([2]; darkness) was “conferred some activity in darkness” and the “Effect of added salicylate” value ([2]; low light) was “potentiated atrazine herbicidal activity under low light”. For the same molecule, the “Effect of salicylate on Basagran (bentazon) herbicidal activity (in words)” value ([3]; tobacco) was “potentiates Basagran®”, the “Effect of added salicylate” value ([3]; tobacco, apparent 3 days after application, persisted through 6 days) was “increased atrazine herbicidal activity” and the “Effect of salicylate on atrazine herbicidal activity (in words)” value ([4]; range of temperatures (15-35 C)) was “potentiated atrazine herbicidal activity under a range of temperatures”. The “Effect of salicylate on Aatrex Nine-O herbicidal activity (in words)” value ([5]; velvetleaf) was “potentiates Aatrex Nine-O®”.

— patent US20040116293A1, “Enhanced herbicide composition” (priority 2002, published 2004)
